Where “and” joins values, the source holds several entries; their conditions need not be identical. Equal entries are not always repeated.
Tests used:
[1] = Percent reduction of collagen (1 ug/mL) induced platelet aggregation was determined at 0.5 mM concentration; type: functional, Homo sapiens
[2] = Percent reduction of thrombin receptor activating peptide (12 uM) induced platelet aggregation was determined at 0.5 mM concentration; type: functional, Homo sapiens
[3] = Percent reduction of collagen (5 ug/mL) induced platelet aggregation was determined at 0.5 mM concentration; type: functional, Homo sapiens
[4] = Percent reduction of ADP (4 uM) induced platelet aggregation was determined at 0.5 mM concentration; type: functional, Homo sapiens
Rattus norvegicus [5] = assay: Percent reduction in infarct size after bolus injection at 0.07 mol/kg dose; type: functional
Rattus norvegicus [6] = assay: Percent reduction in infarct volume after treatment at 0.0 mg/kg dose; type: functional
[7] = Percent reduction of ADP (4 uM) induced platelet aggregation was determined at 0.25 mM concentration; type: functional, Homo sapiens
[8] = Percent reduction of thrombin receptor activating peptide (12 uM) induced platelet aggregation was determined at 0.25 mM concentration; type: functional, Homo sapiens
Rattus norvegicus [9] = assay: Percent reduction in infarct volume after treatment at 20.0 mg/kg dose; type: functional
Rattus norvegicus [10] = assay: Percent reduction in infarct volume after treatment at 40.0 mg/kg dose; type: functional
[11] = Percent reduction of collagen (5 ug/mL) induced platelet aggregation was determined at 0.25 mM concentration; type: functional, Homo sapiens
[12] = Percent reduction of collagen (1 ug/mL) induced platelet aggregation was determined at 0.25 mM concentration; type: functional, Homo sapiens
Rattus norvegicus [13] = assay: Percent reduction in infarct volume after treatment at 10.0 mg/kg dose; type: functional
Rattus norvegicus [14] = assay: Percent reduction in infarct size after bolus injection at 0.1 mol/kg dose; type: functional

SMILES | Reduction [1] [%] | Reduction [2] [%] | Reduction [3] [%] | Reduction [4] | Reduction (Rattus norvegicus [5]) [%] | Reduction (Rattus norvegicus [6]) [%] | Reduction [7] [%] | Reduction [8] [%] | Reduction (Rattus norvegicus [9]) [%] | Reduction (Rattus norvegicus [10]) [%] | Reduction [11] [%] | Reduction [12] [%] | Reduction (Rattus norvegicus [13]) [%] | Reduction (Rattus norvegicus [14]) [%]
Cc1ncc(Cn2cnnn2)c(CO)c1O | 6 | 7 | 0 | 4% |  |  |  |  |  |  |  |  |  | 
Cc1ncc(CNc2ccc(-c3ccc(C(=N)N)cc3)cc2)c(CO)c1O | 93 |  | 30 | 82% and 66% | 30 | 40 | 63 | 93 | 26.5 | 2.9 | 1 | 41 | 30.5 | 
Cc1ncc(Cn2nnc(N)n2)c(CO)c1O | 1 | 2 | 0 | 0% |  |  |  |  |  |  |  |  |  | 
Cc1ncc(CNc2ccc(C(=N)N)cc2)c(CO)c1O | 10 | 88 | 24 | 79% |  |  |  |  |  |  |  |  |  | 
Cc1ncc(CNC(=O)Nc2ccc(F)cc2)c(CO)c1O | 0 | 0 | 1 | 0% |  |  |  |  |  |  |  |  |  | 
Cc1ncc(COP(=O)(O)O)c(C=O)c1O [PYRIDOXAL PHOSPHATE ANHYDROUS] | 0 | 0 | 0 | 0% |  |  |  |  |  |  |  |  |  | 31
Cc1ncc(C/N=C(\S)Nc2ccc(F)cc2)c(CO)c1O | 23 | 6 | 4 | 18% |  |  |  |  |  |  |  |  |  | 
Cc1ncc(CO)c(CO)c1O [PYRIDOXINE] | 4 | 0 | 4 | 0% |  |  |  |  |  |  |  |  |  | 
Cc1ncc(Cn2ccnc2C)c(CO)c1O | 0 | 3 | 1 | 1% |  |  |  |  |  |  |  |  |  | 
